Data reported in US11260011B2, “Use of neohesperidin” (NATURAL MEDICINE INSTITUTE OF ZHEJIANG YANGSHENGTANG CO., …, priority 2011, dated 2022).
Where “and” joins values, the source holds several entries; their conditions need not be identical. Equal entries are not always repeated.

What was measured:
[1] = Effect of topical application of neohesperidin on skin microcirculation by Laser Doppler Flowmetery; format: in vivo, Oryctolagus cuniculus; design: key to Working time point: —: represents the time point at which P < 0.1 did not appear during the 24 h test when 2% solution was administered orally
Source text: The experimental method for promoting microcirculation: Male Oryctolagus cuniculus weighted 3.0-3.5 kg were used. After shaving the hair on the back of the Oryctolagus cuniculus, 10 points for testing blood flow were marked with a marker pen on the hairless skin of the rabbit, i.e. 5 points for each of the right side and the left side, and aorta was avoided when drawing the points. Before smearing the sample, the basic values of blood flow at the 10 points of rabbits of each experimental group were determined by Laser Doppler Flowmetery. […] 2% (w/v) solution was orally administrated by a similar method in a volume 100 times compared to the volume used in the group wherein the 2% (w/v) solution was administered by smearing. After administration, the blood flow value was determined every hour at the same point by Laser Doppler Flowmetery for 24 h, and the variation index of blood flow was calculated to evaluate the effect of neohesperidin on the back blood of rabbits, wherein a higher variation index of blood flow indicated a better effect of promoting microcirculation. The experimental results were statistically analyzed by SPSS11.5 software, and t-test was applied to the measured data to evaluate the experimental results. When P<0.1, the data may be regarded as statistically significant. In the results of Table 1, all the time points with P<0.1 in the 24-h test were listed.

[2] = topical application to human skin; cited from earlier work

| Compound | improvement of skin microcirculation after topical administration to skin surface [2] | also measured |
| --- | --- | --- |
| COc1ccc([C@@H]2CC(=O)c3c(O)cc(O[C@@H]4O[C@H](CO)[C@@H](O)[C@H](O)[C@H]4O[C@@H]4O[C@@H](C)[C@H](O)[C@@H](O)[C@H]4O)cc3O2)cc1O [neohesperidin] |  | Working time point ([1]; 0.5% (w/v) solution, smearing on back skin, time points with P<0.1 in 24-h test): 6 h; Working time point ([1]; 1% (w/v) solution, smearing on back skin, time points with P<0.1 in 24-h test): 2 h and 3 h; Working time point ([1]; 2% (w/v) solution, orally, 24-h test): —; blood flow in skin microvessels as compared to the blank side ([1]; smearing backs of rabbits with different concentrations): significantly enhanced |
| C[C@@H]1CC[C@@]2(OC1)O[C@H]1C[C@H]3[C@@H]4CC=C5C[C@@H](O)C[C@@H](O)[C@]5(C)[C@H]4CC[C@]3(C)[C@H]1[C@@H]2C [ruscogenin] | cannot significantly improve skin microcirculation |  |
| ginkgo flavone | cannot significantly improve skin microcirculation |  |
| ginsenoside | cannot significantly improve skin microcirculation |  |
| tanshinone | cannot significantly improve skin microcirculation |  |
| β-aescin | cannot significantly improve skin microcirculation |  |
